From patent US10287301B2 (Achillion Pharmaceuticals, Inc., priority 2015, dated 2019)

What follows are compounds tested against Human Factor D (Homo sapiens (Human), UniProt P00746) (assay: Human Factor D Assay). Conditions: not given.
Assay type: biochemical
How it was run: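 Thioester cleavage assay: human Factor D (serum-derived, 80 nM final), substrate Z-L-Lys-SBzl with DTNB, both 100 μM final, after 5 min compound preincubation at room temperature.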

Human Factor D, sequence (P00746 26-253): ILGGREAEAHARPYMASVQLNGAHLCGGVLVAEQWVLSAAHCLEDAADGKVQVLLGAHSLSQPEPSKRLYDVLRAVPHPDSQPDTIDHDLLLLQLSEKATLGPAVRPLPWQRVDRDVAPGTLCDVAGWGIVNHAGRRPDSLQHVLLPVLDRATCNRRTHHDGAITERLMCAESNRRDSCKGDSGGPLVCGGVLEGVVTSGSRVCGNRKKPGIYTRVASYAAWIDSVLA

**Q.** For `Cc1ncc(-c2ccc3c(c2)c(C(C)O)nn3CC(=O)N2C[C@H](F)C[C@H]2C(=O)Nc2cccc(Br)n2)cn1` (stereo partly drawn) [Compound 360, (2S,4R)-N-(6-bromopyridin-2-yl)-4-fluoro-1-(2-(3-(1-hydroxyethyl)-5-(2-methylpyrimidin-5-yl)-1H-indazol-1-yl)acetyl)pyrrolidine-2-carboxamide], which IC50 is on record?
**A.** 1000 to 10000 nM

Same assay, conditions: Table 3; Human Factor D 80 nM, substrate Z-L-Lys-SBzl; read-out: IC50 (Stars)

**Q.** For `CC(=O)c1nn(CC(=O)N2C[C@H](F)C[C@H]2C(=O)Nc2cccc(-c3cc(S(=O)(=O)N(C)C)ccc3Cl)c2F)c2ccc(-c3cnc(C)nc3)cc12` [Compound 343, (2S,4R)-1-(2-(3-Acetyl-5-(2-methylpyrimidin-5-yl)-1H-indazol-1-yl)acetyl)-N-(2′-chloro-5′-(N,N-dimethylsulfamoyl)-2-fluoro-[1,1′-biphenyl]-3-yl)-4-fluoropyrrolidine-2-carboxamide], which IC50 is on record?
**A.** < 1000 nM

**Q.** For `CC(=O)c1nn(CC(=O)N2C[C@H](F)C[C@H]2C(=O)Nc2cccc(OC(F)(F)F)n2)c2ccc(-c3cnc(C)nc3)cc12` [Compound 344, (2S,4R)-1-(2-(3-Acetyl-5-(2-methylpyrimidin-5-yl)-1H-indazol-1-yl)acetyl)-4-fluoro-N-(6-(trifluoromethoxy)pyridin-2-yl)pyrrolidine-2-carboxamide], which IC50 is on record?
**A.** < 1000 nM

**Q.** With `CC(=O)c1nn(CC(=O)N2C[C@H](F)C[C@H]2C(=O)Nc2cc(C)cc(Br)n2)c2ccc(-c3cnc(C)nc3)cc12` [Compound 345, (2S,4R)-1-(2-(3-Acetyl-5-(2-methylpyrimidin-5-yl)-1H-indazol-1-yl)acetyl)-N-(6-bromo-4-methylpyridin-2-yl)-4-fluoropyrrolidine-2-carboxamide] as the compound, how does the IC50 read?
**A.** < 1000 nM

**Q.** For `CC(=O)c1nn(CC(=O)N2C[C@H](F)[C@@H](O)[C@H]2C(=O)Nc2cccc(Br)n2)c2ccc(-c3cnc(C)nc3)cc12` [Compound 346, (2S,3S,4S)-1-(2-(3-Acetyl-5-(2-methylpyrimidin-5-yl)-1H-indazol-1-yl)acetyl)-N-(6-bromopyridin-2-yl)-4-fluoro-3-hydroxypyrrolidine-2-carboxamide], which IC50 is on record?
**A.** < 1000 nM

**Q.** With `CC(=O)c1nn(CC(=O)N2C[C@H](F)C[C@H]2C(=O)Nc2cnc(C)c(Br)n2)c2ccc(-c3cnc(C)nc3)cc12` [Compound 349, (2S,4R)-1-(2-(3-Acetyl-5-(2-methylpyrimidin-5-yl)-1H-indazol-1-yl)acetyl)-N-(6-bromo-5-methylpyrazin-2-yl)-4-fluoropyrrolidine-2-carboxamide] as the compound, how does the IC50 read?
**A.** < 1000 nM

**Q.** `CC(=O)c1nn(CC(=O)N2[C@@H]3C[C@@H]3C[C@H]2C(=O)Nc2cncc(Br)n2)c2ccc(-c3cnc(C)nc3)cc12` [Compound 350, (1R,3S,5R)-2-(2-(3-Acetyl-5-(2-methylpyrimidin-5-yl)-1H-indazol-1-yl)acetyl)-N-(6-bromopyrazin-2-yl)-2-azabicyclo[3.1.0]hexane-3-carboxamide] was tested. Which IC50 did it give?
**A.** < 1000 nM

**Q.** With `COc1cc(Br)nc(NC(=O)[C@@H]2C[C@@H](F)CN2C(=O)Cn2nc(C(C)=O)c3cc(-c4cnc(C)nc4)ccc32)c1` [Compound 351] as the compound, how does the IC50 read?
**A.** < 1000 nM

**Q.** With `CC(=O)c1nn(CC(=O)N2[C@@H]3C[C@@H]3C[C@H]2C(=O)Nc2cncc(Br)n2)c2ccc(-c3cnc(N)nc3)cc12` [Compound 352, (1R,3S,5R)-2-(2-(3-Acetyl-5-(2-aminopyrimidin-5-yl)-1H-indazol-1-yl)acetyl)-N-(6-bromopyrazin-2-yl)-2-azabicyclo[3.1.0]hexane-3-carboxamide] as the compound, how does the IC50 read?
**A.** < 1000 nM

**Q.** Which IC50 does the source give for `CC(=O)c1nn(CC(=O)N2C[C@H](F)C[C@H]2C(=O)Nc2cncc(Br)n2)c2ccc(-c3cnc(N)nc3)cc12` [Compound 353, (2S,4R)-1-(2-(3-Acetyl-5-(2-aminopyrimidin-5-yl)-1H-indazol-1-yl)acetyl)-N-(6-bromopyrazin-2-yl)-4-fluoropyrrolidine-2-carboxamide] here?
**A.** < 1000 nM

**Q.** `CC(=O)c1nn(CC(=O)N2C[C@H](F)C[C@H]2C(=O)Nc2cncc(Br)n2)c2ccc(-c3cnc(C4CC4)nc3)cc12` [Compound 354, (2S,4R)-1-(2-(3-Acetyl-5-(2-cyclopropylpyrimidin-5-yl)-1H-indazol-1-yl)acetyl)-N-(6-bromopyrazin-2-yl)-4-fluoropyrrolidine-2-carboxamide] was tested. Which IC50 did it give?
**A.** < 1000 nM

**Q.** Which IC50 does the source give for `CC(=O)c1nn(CC(=O)N2C[C@H](F)C[C@H]2C(=O)Nc2nc(CC(F)(F)F)cs2)c2ccc(-c3cnc(C)nc3)cc12` [Compound 355, (2S,4R)-1-(2-(3-Acetyl-5-(2-methylpyrimidin-5-yl)-1H-indazol-1-yl)acetyl)-4-fluoro-N-(4-(2,2,2-trifluoroethyl)thiazol-2-yl)pyrrolidine-2-carboxamide] here?
**A.** < 1000 nM

**Q.** How did the IC50 turn out when `CC(=O)c1nn(CC(=O)N2[C@@H]3C[C@@H]3C[C@H]2C(=O)Nc2cncc(Br)n2)c2ccc(-c3cnc(C4CC4)nc3)cc12` [Compound 356, (1R,3S,5R)-2-(2-(3-acetyl-5-(2-cyclopropylpyrimidin-5-yl)-1H-indazol-1-yl)acetyl)-N-(6-bromopyrazin-2-yl)-2-azabicyclo[3.1.0] hexane-3-carboxamide] was run?
**A.** < 1000 nM

**Q.** For `CC(=O)c1nn(CC(=O)N2C[C@H](F)C[C@H]2C(=O)Nc2ccn(CC(F)(F)F)n2)c2ccc(-c3cnc(C)nc3)cc12` [Compound 357, (2S,4R)-1-(2-(3-Acetyl-5-(2-methylpyrimidin-5-yl)-1H-indazol-1-yl)acetyl)-4-fluoro-N-(1-(2,2,2-trifluoroethyl)-1H-pyrazol-3-yl)pyrrolidine-2-carboxamide], which IC50 is on record?
**A.** < 1000 nM

**Q.** With `CC(=O)c1nn(CC(=O)N2C[C@H](F)C[C@H]2C(=O)Nc2cccc(Br)c2Cl)c2ccc(-c3cnc(C)nc3)cc12` [Compound 358, (2S,4R)-1-(2-(3-Acetyl-5-(2-methylpyrimidin-5-yl)-1H-indazol-1-yl)acetyl)-N-(3-bromo-2-chlorophenyl)-4-fluoropyrrolidine-2-carboxamide] as the compound, how does the IC50 read?
**A.** < 1000 nM

**Q.** Which IC50 does the source give for `CC(=O)c1nn(CC(=O)N2C[C@H](F)C[C@H]2C(=O)Nc2cc(Cl)cc(Br)n2)c2ccc(-c3cnc(C)nc3)cc12` [Compound 359, (2S,4R)-1-(2-(3-Acetyl-5-(2-methylpyrimidin-5-yl)-1H-indazol-1-yl)acetyl)-N-(6-bromo-4-chloropyridin-2-yl)-4-fluoropyrrolidine-2-carboxamide] here?
**A.** < 1000 nM

**Q.** For `CC(=O)c1nn(CC(=O)N2C[C@H](F)C[C@H]2C(=O)Nc2cccc(Br)n2)c2cc(C(=O)N(C)C)c(-c3cnc(C)nc3)cc12` [Compound 362, 3-acetyl-1-(2-((2S,4R)-2-((6-bromopyridin-2-yl)carbamoyl)-4-fluoropyrrolidin-1-yl)-2-oxoethyl)-N,N-dimethyl-5-(2-methylpyrimidin-5-yl)-1H-indazole-6-carboxamide], which IC50 is on record?
**A.** < 1000 nM

**Q.** For `CC(=O)c1nn(CC(=O)N2[C@@H]3C[C@@H]3C[C@H]2C(=O)Nc2ccn(CC(F)(F)F)n2)c2ccc(-c3cnc(C)nc3)cc12` [Compound 363, (1R,3S,5R)-2-(2-(3-acetyl-5-(2-methylpyrimidin-5-yl)-1H-indazol-1-yl)acetyl)-N-(1-(2,2,2-trifluoroethyl)-1H-pyrazol-3-yl)-2-azabicyclo[3.1.0] hexane-3-carboxamide], which IC50 is on record?
**A.** < 1000 nM

**Q.** How did the IC50 turn out when `CC(=O)c1nn(CC(=O)N2[C@@H]3C[C@@H]3C[C@H]2C(=O)Nc2cccc(Br)n2)c2ccc(-c3cnc(N)nc3)cc12` [Compound 364, (1R,3S,5R)-2-(2-(3-Acetyl-5-(2-aminopyrimidin-5-yl)-1H-indazol-1-yl)acetyl)-N-(6-bromopyridin-2-yl)-2-azabicyclo[3.1.0]hexane-3-carboxamide] was run?
**A.** < 1000 nM

**Q.** How did the IC50 turn out when `CC(=O)c1nn(CC(=O)N2[C@@H]3C[C@@H]3C[C@H]2C(=O)Nc2cnc(C)c(Br)n2)c2ccc(-c3cnc(C)nc3)cc12` [Compound 365, (1R,3S,5R)-2-(2-(3-Acetyl-5-(2-methylpyrimidin-5-yl)-1H-indazol-1-yl)acetyl)-N-(6-bromo-5-methylpyrazin-2-yl)-2-azabicyclo[3.1.0]hexane-3-carboxamide] was run?
**A.** < 1000 nM

**Q.** With `COc1cc(Br)nc(NC(=O)[C@@H]2C[C@H]3C[C@H]3N2C(=O)Cn2nc(C(C)=O)c3cc(-c4cnc(C)nc4)ccc32)c1` [Compound 366] as the compound, how does the IC50 read?
**A.** < 1000 nM

**Q.** With `CC(=O)c1nn(CC(=O)N2C[C@H](F)C[C@H]2C(=O)Nc2cccc(Br)n2)c2ccc(-c3cnc(NC4CC4)nc3)cc12` [Compound 367, (2S,4R)-1-(2-(3-Acetyl-5-(2-(cyclopropylamino)pyrimidin-5-yl)-1H-indazol-1-yl)acetyl)-N-(6-bromopyridin-2-yl)-4-fluoropyrrolidine-2-carboxamide] as the compound, how does the IC50 read?
**A.** < 1000 nM

**Q.** Which IC50 does the source give for `CC(=O)c1nn(CC(=O)N2C[C@H](F)C[C@H]2C(=O)Nc2cncc(Cl)n2)c2ccc(-c3cnc(C)nc3)cc12` [Compound 368, (2S,4R)-1-(2-(3-Acetyl-5-(2-methylpyrimidin-5-yl)-1H-indazol-1-yl)acetyl)-N-(6-chloropyrazin-2-yl)-4-fluoropyrrolidine-2-carboxamide] here?
**A.** < 1000 nM

**Q.** With `CC(=O)c1nn(CC(=O)N2C[C@H](F)C[C@H]2C(=O)Nc2cc(C(F)(F)F)cc(Br)n2)c2ccc(-c3cnc(C)nc3)cc12` [Compound 370, (2S,4R)-1-(2-(3-Acetyl-5-(2-methylpyrimidin-5-yl)-1H-indazol-1-yl)acetyl)-N-(6-bromo-4-(trifluoromethyl)pyridin-2-yl)-4-fluoropyrrolidine-2-carboxamide] as the compound, how does the IC50 read?
**A.** < 1000 nM

**Q.** How did the IC50 turn out when `CC(=O)c1nn(CC(=O)N2[C@H](C(=O)Nc3cccc(Br)n3)C[C@@]3(C)C[C@@H]23)c2ccc(-c3cnc(C)nc3)cc12` [Compound 372, (1R,3S,5R)-2-(2-(3-Acetyl-5-(2-methylpyrimidin-5-yl)-1H-indazol-1-yl)acetyl)-N-(6-bromopyridin-2-yl)-5-methyl-2-azabicyclo[3.1.0]hexane-3-carboxamide] was run?
**A.** < 1000 nM

Same assay, conditions: read-out: IC50 (Stars)

**Q.** With `Cc1ncc(-c2ccc3c(c2)c(C(C)O)nn3CC(=O)N2C[C@H](F)C[C@H]2C(=O)Nc2cccc(Br)n2)cn1` (stereo partly drawn) [Compound 361, (2S,4R)-N-(6-bromopyridin-2-yl)-4-fluoro-1-(2-(3-(1-hydroxyethyl)-5-(2-methylpyrimidin-5-yl)-1H-indazol-1-yl)acetyl)pyrrolidine-2-carboxamide] as the compound, how does the IC50 read?
**A.** 1000 to 10000 nM
